We go through 70 molecules from PubChem BioAssay AID179 (DTP/NCI, 2004).

Values joined by “and” are separate entries in the source; they are usually repeats but may differ in a detail not shown here. Equal values may be shown once. Active and inactive are the calls of the source.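 How the source made its calls: active means compounds giving half or more protection of infected cells from virus-caused growth loss, again on retest; inactive means the rest.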 Where a SMILES comes first, the peptide text is derived from it.

This experiment has as its system CEM cells HIV-1 protection, formazan growth assay. Put plainly: NCI AIDS Antiviral Assay. As to conditions: for IC50: measured here: growth of uninfected CEM cells. A digest of the protocol: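 CEM (human) cells, HIV-1 infected vs uninfected, 5-point dosing, formazan growth read-out. Retest threshold 50% protection.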

`COC(=O)/C(=C(\C)C=O)N1C(=O)C(NC(=O)c2ccccc2)C1SSc1nc2ccccc2s1` (stereo unspecified): the EC50 (as a rule, the concentration giving half of the maximal effect) was above 200 µM and the half-inhibitory concentration (IC50) (in general, the concentration that inhibits the measured activity by half) amounted to 12.9 µM.

For the molecule `O=C1c2ccccc2C(=O)N1CCc1c[nH]c2ccccc12`, the EC50 is above 200 µM and the IC50 was above 200 µM.

`O=C(O)C1(C(=O)O)CC23CCC2(COC3)C1` (stereo unspecified): the result was inactive.

Consider `O=[N+]([O-])c1cc(Cl)cc2cc(Cl)cnc12`, for which the EC50 is above 200 µM and the IC50 was above 200 µM.

In the case of `C[CH2][Sn]1([CH2]C)[O]C(=O)[O][Sn]([CH2]C)([CH2]C)[O]1`, the EC50 was above 8.32 µM and the IC50 is 2.24 µM.

On to `O=C1C2C3C=CC(C3)C2C2C3C=CC(C3)C12` (stereo unspecified), for which the EC50 is above 324 µM and the IC50 was above 324 µM.

`CSc1nc2c3ccccc3ccn2c1C(=O)N/N=C/c1ccccc1`: the EC50 is above 100 µM and the IC50 was above 100 µM.

`CCOC(=O)c1c(NC(=S)Nc2ccc(C)cc2)sc2c1CCN(C)C2`: the EC50 was above 200 µM and the IC50 is above 200 µM.

Consider `COC(=O)C1C2CC3C1C3C2C(=O)OC` (stereo unspecified), for which the EC50 is above 200 µM and the IC50 was above 200 µM.

For `CC(=O)N(C(C)=O)c1cc2c3c(c1)CCCN3CCC2`, the EC50 is above 200 µM and the IC50 was 182 µM.

With `O=NNc1ccc(S(=O)c2ccccc2)cn1` (stereo unspecified), the EC50 is above 200 µM and the IC50 is above 200 µM.

Turning to `CC1=CC(C)=Nc2ccc(Cl)cc2N1`, the EC50 was above 200 µM; the IC50 is 91.2 µM and > 200 µM.

As for `Cc1c2oc(=O)c(C#N)cc2c2ccccn12`, the EC50 was above 200 µM and the half-inhibitory concentration (IC50) was above 200 µM.

Regarding `[N-]=[N+]=NC[C@H]1OCO[C@H](CN=[N+]=[N-])[C@@H](OCCOCCCl)[C@@H]1OCCOCCCl`, the EC50 was above 200 µM and the 50% inhibitory concentration (IC50) turned out to be 148 µM.

In the case of `NCC1OC(OC2C(CO)OC(OC3C(O)C(N)CC(N)C3OC3OC(CN)C(O)C(O)C3N)C2O)C(N)C(O)C1O` (stereo unspecified) (tested in a mixture with another compound), the EC50 was above 135 µM and the IC50 is 9.33 µM.

In the case of `O=C1c2ccccc2CC12Cc1ccccc1C2`, the EC50 was above 200 µM and the IC50 came out at 69.2 µM.

With `N#Cc1c(N2CCCC2)nsc1Nc1ccc(F)cc1`, the EC50 is above 200 µM and the concentration for half-maximal inhibition (IC50) was above 200 µM.

On to `Cc1nc2ccccc2c(=O)n1Cc1nc2ccccc2[nH]1`, for which the result was inactive.

`COC(=O)c1c(C)cc(OC(=O)c2c(C)cc(O)c(/C=N\O)c2O)c(C)c1O`: the EC50 is above 151 µM and the IC50 came to 9.77 µM.

As for `COC(=O)c1sc2nc(Nc3ccccc3)c(=Nc3ccccc3)sc2c1C`, the EC50 was above 200 µM and the half-maximal inhibitory concentration (IC50) was above 200 µM.

Take `COc1ccc(C(=O)C(c2ccc(OC)cc2)C2C(=O)Oc3ccccc32)cc1` (stereo unspecified): the EC50 is above 34.7 µM and the IC50 was above 34.7 µM.

On to `NS(=O)(=O)c1nnc(NC(=O)C23CC4CC(CC(C4)C2)C3)s1`, for which the EC50 is above 200 µM and the IC50 turned out to be 81.3 µM.

With `C/C=C/[C@H](O[Si](C)(C)C(C)(C)C)[C@@H](O)/C=C/C(=O)OCC`, the EC50 is above 200 µM and the IC50 was 28.8 µM.

For `CC(=O)Nc1c(Nc2ccc3c(=O)[nH]ccc3c2C)cc[nH]c1=O`, the EC50 was above 398 µM and the IC50 was 191 µM.

Consider `CCC(C)C(NC(=O)C(N)CCCCN)C(=O)NC(CCC(=O)O)C(=O)NC(CO)C(=O)NC(C)C(=O)NC(C(=O)NC(CC(N)=O)C(=O)NC(CC(C)C)C(=O)NC(CO)C(=O)NC(CCC(N)=O)C(=O)O)C(C)O` (stereo unspecified) (H-KIESATNLSQ-OH; configuration not given here), for which the EC50 was above 57.5 µM and the IC50 was above 57.5 µM.

Regarding `CC12CCC3CCCCC3(OO1)[C@@H](OCc1ccccc1)O2` (stereo partly specified), the EC50 was above 29.5 µM and the IC50 was above 29.5 µM.

`CCC1(O)C(=O)OCc2c1cc(-c1ccc(Cl)cc1)nc2OC` (stereo unspecified): the EC50 is above 200 µM and the IC50 is above 200 µM.

As to `Nc1ccc(S(=O)(=O)c2ccc(N)cc2)cc1`, the result was inactive.

In the case of `O=C(CC(=O)c1ccc(Cl)cc1)Cc1ccc2ccccc2n1`, the EC50 was above 11.2 µM and the half-maximal inhibitory concentration (IC50) was above 11.2 µM.

Turning to `CC(C)(O)[C@@H]1CCC(C)([C@H]2[C@@H](O)CC3(C)C4CC(OC5OC(CO)C(O)C(O)C5O)C5C(C)(C)[C@@H](OC6OCC(O)C(O)C6O)CC[C@@]56C[C@@]46CC[C@]23C)O1` (stereo partly specified), the EC50 was above 120 µM and the concentration for half-maximal inhibition (IC50) was above 120 µM.

For the molecule `COC(O)C(=O)c1c2c(cc3c1CCC3)CCCC2` (stereo unspecified), the EC50 was above 200 µM and the IC50 amounted to 6.17 µM.

For `c1cc(-c2cnc(-c3ccc4c(c3)CCCO4)o2)ccn1`, the EC50 was above 200 µM and the 50% inhibitory concentration (IC50) was determined as 50.1 µM.

As for `CCOC(=O)c1c(N=P(c2ccccc2)(c2ccccc2)c2ccccc2)nnc(-c2ccccc2)c1-c1ccccc1`, the EC50 was above 100 µM and the IC50 was above 100 µM.

In the case of `Cc1cc(S(=O)(=O)Nc2nc(N)n(-c3ccccc3)n2)c(S)cc1Cl`, the EC50 was 129 µM and the half-inhibitory concentration (IC50) is 468 µM.

Take `Cc1ccc(C(=O)Nc2ccc(S(=O)(=O)O)c3cc(S(=O)(=O)O)cc(S(=O)(=O)O)c23)cc1N`: the EC50 is above 200 µM and the IC50 was above 200 µM.

In the case of `C=C(C(=O)C(=O)Oc1ccc(Cl)cc1)C(=O)c1ccc(C)cc1`, the EC50 was above 79.4 µM and the IC50 is above 79.4 µM.

Consider `CC1(CC(=O)O)OC2CCCCCC2O1` (stereo unspecified) (tested in a mixture with another compound), for which the result was inactive.

Consider `COc1cc(C=O)c(-c2cc(OC)c(OC)cc2C=O)cc1OC`, for which the EC50 was above 44.7 µM and the IC50 was above 44.7 µM.

As to `COc1ccc(OC)c2c1C=C[C@H](C1(C)SCCS1)C2C(C)=O` (stereo partly specified), the EC50 is above 200 µM and the IC50 came out at 8.91 µM.

Turning to `CN(C)c1ccc(/C=C(\NC(=O)c2ccccc2)C(=O)Nc2ccccc2C(=O)NCc2ccccc2)cc1`, the EC50 was above 151 µM and the IC50 was 70.8 µM.

`CC1=C2C(=C(CBr)OS1(=O)=O)C(=O)c1ccccc12`: the EC50 was above 741 µM and the IC50 came to 38.9 µM.

As to `CCOC(=O)C1Oc2ccc([N+](=O)[O-])c3c2C1(O)CCC3` (stereo unspecified), the result was inactive.

Take `CCCc1cc(=O)oc2c3c(c4c(c12)OC(C)(C)[C@@H](O)[C@@H]4O)O[C@@H](C)[C@H](C)[C@@H]3O`: the EC50 is above 200 µM and the concentration for half-maximal inhibition (IC50) was determined as 89.1 µM.

Turning to `C[N+]1(CC(=O)O)C2CCC1CC(O)C2` (stereo unspecified), the EC50 was above 200 µM and the IC50 is above 200 µM.

Regarding `Nc1nccc(NCC2(CO)CC(OCc3ccccc3)C2)n1` (stereo unspecified), the EC50 was above 200 µM and the IC50 was above 200 µM.

As for `Cc1ccc(NC(=O)C(=O)C(C2C(C)CC(=O)C2CC(=O)O)[N+](=O)[O-])cc1` (stereo unspecified), the outcome was inactive.

Consider `CCOC(=O)NC(Nc1cc(Cl)ccc1OC)(C(F)(F)F)C(F)(F)F`, for which the EC50 was above 200 µM and the half-maximal inhibitory concentration (IC50) is 102 µM.

In the case of `CN(C)c1ccc(/C=C/C(=O)c2ccccc2)cc1Br`, the EC50 was above 15.8 µM and the IC50 is above 15.8 µM.

As to `O=C(O)c1cc(Cc2ccc(O)c(C(=O)O)c2)ccc1O`, the EC50 was 562 µM, the result was active and the IC50 came to 871 µM.

Take `Cc1cc(=S)oc2c3c(ccc12)OC(C)(C)[C@H](OC(=O)C12CCC(C)(C(=O)O1)C2(C)C)[C@@H]3OC(=O)C12CCC(C)(C(=O)O1)C2(C)C` (stereo partly specified): the EC50 is 0.0575 µM and the half-inhibitory concentration (IC50) worked out at 20 µM.

Consider `CCOC(=O)C(CS)NC(=O)CCCCCCCC(=O)O` (stereo unspecified), for which the EC50 was above 100 µM and the 50% inhibitory concentration (IC50) is 79.4 µM.

On to `CCC1=NC(C(F)(F)F)(C(F)(F)F)N=C(N2CCOCC2)O1`, for which the EC50 was above 200 µM and the IC50 is above 200 µM.

As for `CSc1nnnc2ccccc12`, the EC50 was above 200 µM and the IC50 worked out at 145 µM.

As to `Cc1nn(C(=O)c2ccccc2O)c2c1C(c1ccc(O)cc1O)SC(N)=N2` (stereo unspecified), the EC50 is above 2 µM and the IC50 was 0.331 µM.

As to `CC(C)c1c(P(=O)(c2ccccc2)c2ccccc2)n(C)c2ccccc12`, the EC50 is above 100 µM and the IC50 amounted to 41.7 µM.

Turning to `COc1cc2c(cc1O)C=NCC2`, the result was inactive.

For the molecule `CN(C)CCCN1CCc2c([nH]c3ccccc23)C1c1cccnc1` (stereo unspecified), the EC50 was above 107 µM and the concentration for half-maximal inhibition (IC50) was above 107 µM.

`O=C1C2c3[nH]c4ccccc4c3C3CCCCCCC3C2C(=O)N1c1ccccc1` (stereo unspecified): the result was inactive.

Regarding `Oc1ccccc1C=NCc1ccco1`, the outcome was inactive.

In the case of `COc1ccc(OC)c(/C=C/c2cnnc3ccccc23)c1`, the EC50 was above 64.6 µM and the 50% inhibitory concentration (IC50) amounted to 3.16 µM.

Turning to `COc1cc(N)c2[nH]c3c(C)ccc(C)c3c2c1`, the EC50 was above 30.2 µM and the half-inhibitory concentration (IC50) is above 30.2 µM.

As for `N#C/C(=C\c1ccc(O)c(O)c1)C(=O)NC1CCC(CC2CCC(NC(=O)/C(C#N)=C/c3ccc(O)c(O)c3)CC2)CC1` (stereo unspecified), the EC50 is above 200 µM and the 50% inhibitory concentration (IC50) is 1.07 µM.

Turning to `O=c1c2ccc(Br)cc2nc(-c2ccccc2)n1NC1OC(CO)C(O)C(O)C1O` (stereo unspecified), the result was inactive.

Turning to `COc1ccc2c(=O)c3c([nH]c2c1)OCC3=O`, the EC50 was above 100 µM and the IC50 was above 100 µM.

Turning to `C/C(=N\NC(=O)C[n+]1ccccc1)c1sc(-c2nc(C)c(/C(C)=N/NC(=O)C[n+]3ccccc3)s2)nc1C`, the EC50 was above 30.2 µM and the half-maximal inhibitory concentration (IC50) is above 30.2 µM.

Consider `COC(=O)c1cc2ccccc2c(CS(=O)(=O)O)c1O`, for which the EC50 is above 200 µM and the IC50 was 56.2 µM.

For `C=CCC1(Sc2ccccn2)Sc2ccc3ccccc3c2-c2c(ccc3ccccc23)S1`, the EC50 is above 100 µM and the IC50 is above 100 µM.

Take `C1=CNc2ccccc2N=C1`: the EC50 was above 200 µM and the 50% inhibitory concentration (IC50) is above 200 µM.

With `C/C1=C/C2OC(=O)C3(C)C2C(CC2(C)OC1=CC2=O)OC3(O)C(C)C` (stereo unspecified), the EC50 is above 102 µM and the concentration for half-maximal inhibition (IC50) turned out to be 10.5 µM.

For `COCOc1ccc(C2(O)Oc3cc(OCOC)ccc3C2C)c(O)c1` (stereo unspecified), the EC50 was above 200 µM and the 50% inhibitory concentration (IC50) worked out at 24 µM.
